The values that follow come from paper PMC7613998, “Development of selective inhibitors of phosphatidylinositol 3-kinase C2α” (Nature Chemical Biology, 2022).

As usually defined, the inhibition is the change of the read-out against control, counted positive when it falls. What is called IC50 is the concentration that gives 50% inhibition.

What all share (assay): biochemical
For experiment [1], the target named is FRAP1 (mTOR) (Homo sapiens, UniProt P42345). On the set-up: SelectScreen Z'-LYTE mTOR kinase assay, 1 uM compound, 10 uM ATP, per cent inhibition. To be noted: ATP=10; Technology=ZLYTE; 10 uM ATP. As for the experimental part:
(§1) As PI3KC2α is related to other PI3Ks and to PI3K-like protein kinases such as mTOR, the selectivity of PITCOINs was determined in a panel of biochemical assays. […] Finally, the high specificity of PITCOINs for PI3KC2α was verified by Kinobead profiling experiments. In this approach, the ability of PITCOINs to compete the affinity capture of cellular kinases on immobilized nonselective kinase inhibitors (Kinobeads) is analyzed by mass spectrometry (MS)[31]. […] Four nonkinase weak off-targets were globally found for the three inhibitors with only FECH[32] common to the three PITCOINs (Supplementary Dataset).  Extended Data Fig. 2 Lipid kinase inhibitor profile of PITCOIN1-3. (a–c) Selectivity profiling of PITCOIN1-3 (1 µM) with purified lipid kinases in the presence of 10 µM ATP. […] Data are presented as mean ± SD from two independent experiments. (d, e) IC50 measurements of PITCOIN1-3 against purified recombinant class I PI3K p110α/p85α (d) or purified class III PI3K VPS34 complex II (e). 10 µM ATP and 20 µM PIP3 (for p110α/p85α) or 200 µM PI (for VPS34 complex II) were used as substrates. […] Data are presented as mean ± SD from two independent experiments. Source data

Experiment [2] has as its target T1, VPS34 complex II (Homo sapiens, UniProt Q8NEB9).
T1 construct: gene PIK3C3
On the set-up: Lipid kinase activity assay on purified class I PI3K or VPS34 complex II, 10 uM ATP. As to the method:
Extended Data Fig. 2 Lipid kinase inhibitor profile of PITCOIN1-3. (a–c) Selectivity profiling of PITCOIN1-3 (1 µM) with purified lipid kinases in the presence of 10 µM ATP. […] Data are presented as mean ± SD from two independent experiments. (d, e) IC50 measurements of PITCOIN1-3 against purified recombinant class I PI3K p110α/p85α (d) or purified class III PI3K VPS34 complex II (e). 10 µM ATP and 20 µM PIP3 (for p110α/p85α) or 200 µM PI (for VPS34 complex II) were used as substrates. […] Data are presented as mean ± SD from two independent experiments. Source data

For experiment [3], the target named is CAMKK2 (CaMKK beta) (Homo sapiens, UniProt Q96RR4). Further details: SelectScreen LanthaScreen kinase binding assay, per cent tracer displacement, mean of two points. Conditions: tracer displacement.
Chain of CAMKK2 (CaMKK beta) (Q96RR4 whole entry): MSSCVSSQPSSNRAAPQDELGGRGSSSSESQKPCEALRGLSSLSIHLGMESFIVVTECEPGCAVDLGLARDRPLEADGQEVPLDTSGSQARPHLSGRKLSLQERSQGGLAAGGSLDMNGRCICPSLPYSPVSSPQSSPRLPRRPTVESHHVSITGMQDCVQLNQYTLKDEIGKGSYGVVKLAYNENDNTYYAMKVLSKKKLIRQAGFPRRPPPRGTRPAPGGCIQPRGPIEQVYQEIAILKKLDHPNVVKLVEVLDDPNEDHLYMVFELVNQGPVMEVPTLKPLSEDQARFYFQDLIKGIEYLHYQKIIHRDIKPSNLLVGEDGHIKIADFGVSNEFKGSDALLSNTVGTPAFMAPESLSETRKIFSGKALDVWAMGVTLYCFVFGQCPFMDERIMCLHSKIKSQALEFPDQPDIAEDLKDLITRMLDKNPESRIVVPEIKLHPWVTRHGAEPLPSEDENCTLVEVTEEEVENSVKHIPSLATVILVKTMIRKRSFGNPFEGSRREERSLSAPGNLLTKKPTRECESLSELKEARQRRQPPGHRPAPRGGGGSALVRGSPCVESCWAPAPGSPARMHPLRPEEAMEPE
The target of experiment [4] is T2, STK17B (DRAK2) (Homo sapiens, UniProt O94768).
T2 sequence (O94768 1-372): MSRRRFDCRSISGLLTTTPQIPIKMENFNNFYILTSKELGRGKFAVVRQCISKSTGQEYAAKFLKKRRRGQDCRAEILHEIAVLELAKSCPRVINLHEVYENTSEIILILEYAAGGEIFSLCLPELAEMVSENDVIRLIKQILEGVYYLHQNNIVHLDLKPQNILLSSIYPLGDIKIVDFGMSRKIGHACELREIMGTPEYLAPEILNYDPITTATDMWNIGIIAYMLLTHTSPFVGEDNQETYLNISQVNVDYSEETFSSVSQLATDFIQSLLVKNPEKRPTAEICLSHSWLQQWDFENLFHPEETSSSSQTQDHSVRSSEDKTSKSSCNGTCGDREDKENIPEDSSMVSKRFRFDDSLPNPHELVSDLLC
On the set-up: SelectScreen LanthaScreen kinase binding assay, per cent tracer displacement, mean of two points. To be noted: tracer displacement.

For experiment [5], the target named is RAF1 (cRAF) Y340D Y341D (Homo sapiens, UniProt P04049, Y340D/Y341D). Further details: SelectScreen LanthaScreen kinase binding assay, per cent tracer displacement, mean of two points. To be noted: tracer displacement.
Chain of RAF1 (cRAF) Y340D Y341D (P04049 whole entry Y340D/Y341D): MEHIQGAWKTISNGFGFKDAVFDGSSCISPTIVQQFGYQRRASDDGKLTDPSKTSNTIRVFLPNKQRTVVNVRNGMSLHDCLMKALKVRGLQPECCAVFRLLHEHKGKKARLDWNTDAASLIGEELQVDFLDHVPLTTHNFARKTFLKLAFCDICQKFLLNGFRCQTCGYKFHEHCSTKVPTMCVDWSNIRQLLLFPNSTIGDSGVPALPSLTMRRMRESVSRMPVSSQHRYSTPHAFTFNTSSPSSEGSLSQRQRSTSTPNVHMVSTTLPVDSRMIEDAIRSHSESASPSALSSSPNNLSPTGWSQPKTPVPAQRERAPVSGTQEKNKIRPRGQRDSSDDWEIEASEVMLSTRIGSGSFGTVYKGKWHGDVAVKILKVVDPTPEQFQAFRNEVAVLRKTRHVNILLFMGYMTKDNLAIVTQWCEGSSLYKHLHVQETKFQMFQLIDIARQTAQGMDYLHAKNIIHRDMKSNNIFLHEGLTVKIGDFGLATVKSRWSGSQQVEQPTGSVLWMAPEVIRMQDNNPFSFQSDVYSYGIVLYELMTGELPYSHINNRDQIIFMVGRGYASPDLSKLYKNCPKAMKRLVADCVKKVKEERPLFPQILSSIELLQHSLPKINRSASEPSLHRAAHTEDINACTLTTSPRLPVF
The target of experiment [6] is MAP2K2 (MEK2) (Homo sapiens, UniProt P36507). On the set-up: SelectScreen LanthaScreen kinase binding assay, per cent tracer displacement, mean of two points. Conditions: tracer displacement.
Chain of MAP2K2 (MEK2) (P36507 whole entry): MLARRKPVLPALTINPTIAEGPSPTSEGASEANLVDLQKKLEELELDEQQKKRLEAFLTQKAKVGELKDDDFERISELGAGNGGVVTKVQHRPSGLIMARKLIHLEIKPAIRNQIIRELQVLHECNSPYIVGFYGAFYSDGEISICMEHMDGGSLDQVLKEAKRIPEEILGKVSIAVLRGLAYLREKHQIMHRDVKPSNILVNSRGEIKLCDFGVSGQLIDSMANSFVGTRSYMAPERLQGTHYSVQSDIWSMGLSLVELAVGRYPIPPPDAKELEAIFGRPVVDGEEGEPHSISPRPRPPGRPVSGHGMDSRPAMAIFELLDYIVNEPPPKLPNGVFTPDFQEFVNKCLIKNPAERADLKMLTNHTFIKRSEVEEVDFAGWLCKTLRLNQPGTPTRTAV
The target of experiment [7] is CDK16 (PCTK1)/cyclin Y (Homo sapiens, UniProt Q00536). On the set-up: SelectScreen LanthaScreen kinase binding assay, per cent tracer displacement, mean of two points. Conditions: tracer displacement.
Chain of CDK16 (PCTK1)/cyclin Y (Q00536 whole entry): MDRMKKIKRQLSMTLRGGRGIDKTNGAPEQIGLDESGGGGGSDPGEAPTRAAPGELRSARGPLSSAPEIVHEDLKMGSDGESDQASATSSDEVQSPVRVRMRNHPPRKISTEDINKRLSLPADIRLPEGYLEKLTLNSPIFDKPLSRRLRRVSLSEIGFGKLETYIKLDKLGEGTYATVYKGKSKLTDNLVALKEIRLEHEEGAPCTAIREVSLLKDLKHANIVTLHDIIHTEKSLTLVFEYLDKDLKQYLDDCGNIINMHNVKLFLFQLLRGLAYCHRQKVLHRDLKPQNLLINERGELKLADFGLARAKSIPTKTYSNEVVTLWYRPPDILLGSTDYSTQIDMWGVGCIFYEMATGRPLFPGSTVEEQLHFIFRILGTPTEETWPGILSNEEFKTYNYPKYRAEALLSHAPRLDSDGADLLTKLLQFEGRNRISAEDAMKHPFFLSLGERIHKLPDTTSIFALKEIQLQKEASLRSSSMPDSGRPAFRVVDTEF
Chain of CDK16 (PCTK1)/cyclin Y (Q8ND76 whole entry partner): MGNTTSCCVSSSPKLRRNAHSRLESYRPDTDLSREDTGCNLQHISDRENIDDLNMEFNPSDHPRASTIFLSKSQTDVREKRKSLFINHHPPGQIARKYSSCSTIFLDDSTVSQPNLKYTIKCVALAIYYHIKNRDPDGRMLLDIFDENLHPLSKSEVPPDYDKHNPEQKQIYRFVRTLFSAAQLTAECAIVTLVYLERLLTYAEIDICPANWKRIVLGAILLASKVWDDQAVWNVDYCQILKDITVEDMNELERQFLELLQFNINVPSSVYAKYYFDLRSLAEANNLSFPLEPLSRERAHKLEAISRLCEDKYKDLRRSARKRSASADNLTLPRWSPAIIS
Experiment [8] has as its target T3, PIP4K2A (Homo sapiens, UniProt P48426).
T3 sequence (P48426 1-406): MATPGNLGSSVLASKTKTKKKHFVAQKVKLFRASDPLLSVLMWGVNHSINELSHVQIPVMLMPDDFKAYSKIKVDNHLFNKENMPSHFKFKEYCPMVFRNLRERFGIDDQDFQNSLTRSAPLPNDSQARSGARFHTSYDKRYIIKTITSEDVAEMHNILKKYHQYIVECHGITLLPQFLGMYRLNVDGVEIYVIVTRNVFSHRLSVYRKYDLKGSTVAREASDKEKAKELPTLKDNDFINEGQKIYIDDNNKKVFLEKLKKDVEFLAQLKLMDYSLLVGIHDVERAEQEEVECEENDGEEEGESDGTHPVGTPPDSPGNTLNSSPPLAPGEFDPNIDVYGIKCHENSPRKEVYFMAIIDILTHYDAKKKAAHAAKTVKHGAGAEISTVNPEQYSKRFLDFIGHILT
On the set-up: SelectScreen Adapta purified lipid kinase panel, 1 uM compound, 10 uM ATP, per cent inhibition. To be noted: ATP=10; Technology=Adapta; 10 uM ATP. As to the method:
as §1

Experiment [9] addresses PIK3CG (p110 gamma) (Homo sapiens, UniProt P48736). On the set-up: SelectScreen Adapta purified lipid kinase panel, 1 uM compound, 10 uM ATP, per cent inhibition. To be noted: ATP=10; Technology=Adapta; 10 uM ATP. As to the method: as §1
In experiment [10] the target is PI4K2B (PI4K2 beta) (Homo sapiens, UniProt Q8TCG2). Further details: SelectScreen Adapta purified lipid kinase panel, 1 uM compound, 10 uM ATP, per cent inhibition. Conditions: ATP=10; Technology=Adapta; 10 uM ATP. As to the method:
as §1

Where two headings read alike, the source gives them in different places.

Chain of PIK3CG (p110 gamma) (P48736 whole entry): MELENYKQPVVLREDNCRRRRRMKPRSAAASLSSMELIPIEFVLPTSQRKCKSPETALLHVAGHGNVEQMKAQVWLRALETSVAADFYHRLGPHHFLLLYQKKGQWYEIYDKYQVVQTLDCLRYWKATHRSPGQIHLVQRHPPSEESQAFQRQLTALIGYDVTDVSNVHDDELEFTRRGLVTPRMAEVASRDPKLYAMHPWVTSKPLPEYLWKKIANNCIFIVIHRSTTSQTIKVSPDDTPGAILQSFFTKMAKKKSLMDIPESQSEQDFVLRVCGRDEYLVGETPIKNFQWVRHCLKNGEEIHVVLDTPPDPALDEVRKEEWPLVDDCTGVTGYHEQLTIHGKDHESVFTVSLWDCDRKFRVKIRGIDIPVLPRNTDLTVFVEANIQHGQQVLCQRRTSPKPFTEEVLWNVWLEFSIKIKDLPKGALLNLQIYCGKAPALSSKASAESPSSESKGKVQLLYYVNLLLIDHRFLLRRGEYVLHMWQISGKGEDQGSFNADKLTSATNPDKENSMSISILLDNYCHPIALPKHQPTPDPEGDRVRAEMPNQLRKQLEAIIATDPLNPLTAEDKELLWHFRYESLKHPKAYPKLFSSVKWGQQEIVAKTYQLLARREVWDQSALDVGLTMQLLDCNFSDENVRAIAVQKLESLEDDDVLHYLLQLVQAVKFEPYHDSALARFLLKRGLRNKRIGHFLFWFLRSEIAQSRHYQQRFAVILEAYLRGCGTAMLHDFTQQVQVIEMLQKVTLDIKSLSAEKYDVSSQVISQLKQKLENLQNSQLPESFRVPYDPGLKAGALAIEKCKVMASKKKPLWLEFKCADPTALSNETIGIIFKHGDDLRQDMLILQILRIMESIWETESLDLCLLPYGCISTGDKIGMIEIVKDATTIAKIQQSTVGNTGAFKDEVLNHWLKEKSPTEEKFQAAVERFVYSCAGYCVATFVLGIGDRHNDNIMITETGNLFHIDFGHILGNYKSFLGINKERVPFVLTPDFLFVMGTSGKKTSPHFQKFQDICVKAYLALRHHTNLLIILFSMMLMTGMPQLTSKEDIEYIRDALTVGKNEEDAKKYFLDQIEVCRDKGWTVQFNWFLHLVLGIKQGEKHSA
Chain of PI4K2B (PI4K2 beta) (Q8TCG2 whole entry): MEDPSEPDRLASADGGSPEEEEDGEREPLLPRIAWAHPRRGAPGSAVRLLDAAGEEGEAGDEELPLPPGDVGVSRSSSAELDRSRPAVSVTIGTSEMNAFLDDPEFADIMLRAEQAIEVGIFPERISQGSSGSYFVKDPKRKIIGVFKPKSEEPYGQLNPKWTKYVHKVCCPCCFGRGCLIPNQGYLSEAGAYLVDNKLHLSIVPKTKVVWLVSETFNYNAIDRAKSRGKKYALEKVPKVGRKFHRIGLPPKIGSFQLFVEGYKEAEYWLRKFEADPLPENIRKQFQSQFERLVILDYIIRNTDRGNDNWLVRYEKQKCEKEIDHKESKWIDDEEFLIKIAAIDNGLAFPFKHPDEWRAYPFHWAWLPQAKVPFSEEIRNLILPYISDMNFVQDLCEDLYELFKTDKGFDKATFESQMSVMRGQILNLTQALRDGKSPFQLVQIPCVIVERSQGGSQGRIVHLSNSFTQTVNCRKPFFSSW

Take `O=C(CSc1nc2nccnc2c(=O)n1CCc1ccccc1)Nc1nccs1` [compound 1, PITCOIN1]: the inhibition at 1 µM in experiment [1] was 8%; in [3], -0.673%; in [4] it was -6.01%; in experiment [5], -5.58%; in [6] it was -3%; in experiment [7], -6.54%. In addition, the results for the inhibition at 1 µM in [8], in experiment [9] and in experiment [10] were 13%, 20% and 4%, respectively. Also, the IC50 in experiment [2] (read-out: PITCOIN1 (IC50)) was greater than 10 µM. Moreover, the inhibition at 3 µM in [3] was -0.395%; in experiment [4] it was 2.55%; in experiment [5], -2.49%; in experiment [6], 2.42%; in experiment [7] it was -14.5%. The inhibition at 10 µM in [3] is 3.84%; in [4] it was 4.06%; in experiment [5], -0.882%; in experiment [6] it was -1.45%; in experiment [7], -1.48%.

`O=C(CSc1nc2nccnc2c(=O)n1CCc1ccccc1)Nc1nc(-c2cccc(O)c2)cs1` [compound 2, PITCOIN2]: the inhibition at 1 µM in experiment [1] was 5%; in experiment [8], 2%; in [9] it was 16%; in [10] it was -5%. The IC50 in experiment [2] (read-out: PITCOIN2 (IC50)) was greater than 10 µM.

Consider `CS(=O)(=O)Nc1cccc(-c2csc(NC(=O)CSc3nc4nccnc4c(=O)n3CCc3ccccc3)n2)c1` [compound 3, PITCOIN3], for which the inhibition at 1 µM in [1] is 4%; in experiment [3], 2.3%; in experiment [4], -7.55%; in experiment [5], -1.02%; in [6] it was 0.637%; in experiment [7] it was 3.53%. The inhibition at 1 µM in [8] is -15%; in experiment [9], 9%; in [10] it was 8%. The concentration for half-maximal inhibition (IC50) in [2] (read-out: PITCOIN3 (IC50)) is greater than 10 µM. The inhibition at 3 µM in experiment [3] was 4.67%; in [4] it was -5.4%; in experiment [5], 3.96%; in experiment [6], 2.82%; in [7] it was -5.28%. Also, the inhibition at 10 µM in [3] is 4.93%; in experiment [4], 11.1%; in experiment [5], 3.33%; in experiment [6] it was -3.31%; in experiment [7], -6.76%.
